Structures are written as SMILES. In brackets after ≈: the same amount, converted by molar mass.

In one experiment the test system is A. baumannii 1258916. In words: microbe, parasite or virus in culture. In kind it is cell-based, Acinetobacter baumannii. The conditions noted are these: Acinetobacter baumannii, 1258916, read-out: MIC, A. baumannii 1258916.
For a further experiment, the system named is P. aeruginosa ATCC 27853. Nature of the experiment: microbe, parasite or virus in culture. In kind it is cell-based. The conditions noted are these: Pseudomonas aeruginosa, ATCC27853, read-out: Minimum inhibitory concentration, P. aeruginosa ATCC 27853.
A further experiment has as its system A. baumannii ATCC 17978. Nature of the experiment: microbe, parasite or virus in culture. In kind it is cell-based. The conditions noted are these: Acinetobacter baumannii, ATCC17978, read-out: MIC, A. baumannii ATCC 17978.
Experiment [1] concerns the target T1, PBP3 from Acinetobacter baumannii (ATCC 19606) (Acinetobacter baumannii, UniProt A0ABX6CK25).
T1 sequence (A0ABX6CK25 64-610): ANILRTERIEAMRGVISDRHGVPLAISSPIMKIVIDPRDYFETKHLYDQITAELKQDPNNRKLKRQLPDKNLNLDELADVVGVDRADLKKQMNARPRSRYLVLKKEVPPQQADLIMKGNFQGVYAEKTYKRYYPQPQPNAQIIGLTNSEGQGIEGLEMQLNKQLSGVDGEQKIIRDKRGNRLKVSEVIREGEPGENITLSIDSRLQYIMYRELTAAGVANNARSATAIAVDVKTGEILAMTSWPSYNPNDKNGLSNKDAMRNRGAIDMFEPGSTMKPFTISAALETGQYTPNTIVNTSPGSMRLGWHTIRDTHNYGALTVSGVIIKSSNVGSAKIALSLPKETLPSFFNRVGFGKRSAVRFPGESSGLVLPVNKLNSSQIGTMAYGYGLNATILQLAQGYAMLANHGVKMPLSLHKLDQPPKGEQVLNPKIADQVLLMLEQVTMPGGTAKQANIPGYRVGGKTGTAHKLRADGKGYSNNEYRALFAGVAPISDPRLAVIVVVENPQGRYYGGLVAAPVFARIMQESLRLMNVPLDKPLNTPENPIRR
Nature of the experiment: Bocillin-FL fluorescence polarization competition binding, A. baumannii PBP3. Particulars: fluorescence polarization competition binding assay using Bocillin-FL; read-out: A. baumannii PBP3 Potency. The procedure, abridged:
(§1)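 Purified PBP was preincubated with inhibitor (E. coli PBP3 1.5 μM, 30 min; P. aeruginosa PBP3 0.75 μM, A. baumannii PBP3 0.2 μM and PBP1a 1 μM, 15 min), then Bocillin-FL (0.1 μM; 0.05 μM for PBP1a) added and FP read up to 60 min. EC50 = 50% loss of bound probe.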

Experiment [2] has as its target T2, PBP3 from Pseudomonas aeruginosa (PAO1) (Pseudomonas aeruginosa, UniProt G3XD46).
T2 construct: made in house
In words: Bocillin-FL fluorescence polarization competition binding, P. aeruginosa PBP3. The conditions noted are these: Binding affinity to P. aeruginosa PBP3; fluorescence polarization competition binding assay using Bocillin-FL; read-out: P. aeruginosa PBP3 Potency. The procedure, abridged:
as §1
Background: In fluorescence polarisation assays a small probe gives low polarisation when free and higher when bound to something large.

The subject of the next experiment is A. baumannii CDC-0036. In words: microbe, parasite or virus in culture. In kind it is cell-based. Particulars: Acinetobacter baumannii, CDC0036, read-out: MIC, A. baumannii CDC-0036.
A further experiment has as its system P. aeruginosa CDC-0090. Nature of the experiment: microbe, parasite or virus in culture. It counts as cell-based. Particulars: Pseudomonas aeruginosa, CDC0090, read-out: Minimum inhibitory concentration, P. aeruginosa CDC-0090.
The subject of experiment [3] is B. thailandensis ATCC 700388. In words: microbe, parasite or virus in culture. It counts as cell-based. Particulars: Burkholderia thailandensis, ATCC700388, read-out: Minimum inhibitory concentration (MIC), B. thailandensis ATCC 700388.
In a further experiment the test system is P. aeruginosa CDC-0054. In words: microbe, parasite or virus in culture. In kind it is cell-based. Particulars: Pseudomonas aeruginosa, CDC0054, read-out: Minimum inhibitory concentration, P. aeruginosa CDC-0054.
The subject of the next experiment is A. baumannii CDC-0045. In words: microbe, parasite or virus in culture. In kind it is cell-based. Particulars: Acinetobacter baumannii, CDC0045, read-out: MIC, A. baumannii CDC-0045.

T2 sequence (G3XD46 whole entry): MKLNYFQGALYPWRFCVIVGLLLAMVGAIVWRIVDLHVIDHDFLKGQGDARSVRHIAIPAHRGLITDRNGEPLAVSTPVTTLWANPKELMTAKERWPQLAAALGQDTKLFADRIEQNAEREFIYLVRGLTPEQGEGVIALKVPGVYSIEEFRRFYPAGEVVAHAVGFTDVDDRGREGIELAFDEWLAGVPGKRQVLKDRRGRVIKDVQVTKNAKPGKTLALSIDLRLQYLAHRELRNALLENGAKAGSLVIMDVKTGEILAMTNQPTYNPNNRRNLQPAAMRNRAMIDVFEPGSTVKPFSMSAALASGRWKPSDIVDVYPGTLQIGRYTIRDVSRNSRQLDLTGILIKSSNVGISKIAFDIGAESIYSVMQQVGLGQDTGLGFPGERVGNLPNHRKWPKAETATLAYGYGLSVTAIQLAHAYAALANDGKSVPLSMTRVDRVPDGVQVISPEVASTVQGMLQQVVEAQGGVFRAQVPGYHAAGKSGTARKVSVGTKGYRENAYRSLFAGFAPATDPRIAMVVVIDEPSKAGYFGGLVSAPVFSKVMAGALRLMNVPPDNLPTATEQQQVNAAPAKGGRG

Regarding `O=C(NCCCN1CCN(C(=O)N[C@H](C(=O)N[C@H]2Cc3ccc(F)c(C(=O)O)c3OB2O)c2cc(F)c(O)c(O)c2Cl)C(=O)C1=O)c1ccnc(F)c1F` [Example 299, (R)-3-((S)-2-(2-chloro-5-fluoro-3,4-dihydroxyphenyl)-2-(4-(3-(2,3-difluoroisonicotinamido)propyl)-2,3-dioxopiperazine-1-carboxamido)acetamido)-7-fluoro-2-hydroxy-3,4-dihydro-2H-benzo[e][1,2]oxaborinine-8-carboxylic acid], the MIC was 8 to 16 µg/mL (≈ 10.2 to 20.5 µM) in the experiment with A. baumannii 1258916; 8 to 16 µg/mL (≈ 10.2 to 20.5 µM) in the experiment with P. aeruginosa ATCC 27853; under 1 µg/mL with A. baumannii ATCC 17978; 32 to 64 µg/mL (≈ 41 to 82 µM) in the experiment on A. baumannii CDC-0036; 2 to 4 µg/mL (≈ 2.56 to 5.12 µM) in the experiment on P. aeruginosa CDC-0090; over 128 µg/mL in experiment [3]. Moreover, the MIC in the experiment on P. aeruginosa CDC-0054 is 2 to 4 µg/mL (≈ 2.56 to 5.12 µM); in the experiment with A. baumannii CDC-0045, over 128 µg/mL. Further, the IC50 in experiment [1] and in experiment [2] was 10 to 50 µM throughout.
In the case of `O=C(NCCCN1CCN(C(=O)N[C@@H](C(=O)N[C@H]2Cc3ccc(F)c(C(=O)O)c3OB2O)c2cc(F)c(O)c(O)c2Cl)C(=O)C1=O)c1ccnc(F)c1F` [Example 300, (R)-3-((R)-2-(2-chloro-5-fluoro-3,4-dihydroxyphenyl)-2-(4-(3-(2,3-difluoroisonicotinamido)propyl)-2,3-dioxopiperazine-1-carboxamido)acetamido)-7-fluoro-2-hydroxy-3,4-dihydro-2H-benzo[e][1,2]oxaborinine-8-carboxylic acid], the MIC with A. baumannii 1258916 was under 1 µg/mL; with P. aeruginosa ATCC 27853 it was 2 to 4 µg/mL (≈ 2.56 to 5.12 µM); in the experiment on A. baumannii ATCC 17978, under 1 µg/mL; with A. baumannii CDC-0036 it was 2 to 4 µg/mL (≈ 2.56 to 5.12 µM); in the experiment on P. aeruginosa CDC-0090 it was under 1 µg/mL; in [3], 2 to 4 µg/mL (≈ 2.56 to 5.12 µM). For the same compound, the MIC with P. aeruginosa CDC-0054 and in the experiment on A. baumannii CDC-0045 was under 1 µg/mL throughout. Further, the IC50 in experiment [1] and in experiment [2] was under 10 µM throughout.
For the compound `Cc1cc(C(=O)NCCCN2CCN(C(=O)NC(C(=O)N[C@H]3Cc4ccc(F)c(C(=O)O)c4OB3O)c3cc(F)c(O)c(O)c3Cl)C(=O)C2=O)c(F)cn1` (stereo partly drawn) [Example 301, (3R)-3-(2-(2-chloro-5-fluoro-3,4-dihydroxyphenyl)-2-(4-(3-(5-fluoro-2-methylisonicotinamido)propyl)-2,3-dioxopiperazine-1-carboxamido)acetamido)-7-fluoro-2-hydroxy-3,4-dihydro-2H-benzo[e][1,2]oxaborinine-8-carboxylic acid], the MIC is under 1 µg/mL with A. baumannii 1258916; under 1 µg/mL in the experiment on P. aeruginosa ATCC 27853; under 1 µg/mL in the experiment on A. baumannii ATCC 17978; 2 to 4 µg/mL (≈ 2.57 to 5.15 µM) in the experiment with A. baumannii CDC-0036; under 1 µg/mL in the experiment on P. aeruginosa CDC-0090; 2 to 4 µg/mL (≈ 2.57 to 5.15 µM) in [3]. Besides, the MIC with P. aeruginosa CDC-0054 and in the experiment with A. baumannii CDC-0045 was under 1 µg/mL each time. The IC50 in [1] and in experiment [2] was under 10 µM each time.
In the case of `O=C(NCCCN1CCN(C(=O)N[C@H](C(=O)N[C@H]2Cc3ccc(F)c(C(=O)O)c3OB2O)c2cc(F)c(O)c(O)c2Cl)C(=O)C1=O)c1cccc(O)c1Cl` [Example 302, (R)-3-((S)-2-(4-(3-(2-chloro-3-hydroxybenzamido)propyl)-2,3-dioxopiperazine-1-carboxamido)-2-(2-chloro-5-fluoro-3,4-dihydroxyphenyl)acetamido)-7-fluoro-2-hydroxy-3,4-dihydro-2H-benzo[e][1,2]oxaborinine-8-carboxylic acid], the MIC with A. baumannii 1258916 is over 128 µg/mL; in the experiment on P. aeruginosa ATCC 27853, 32 to 64 µg/mL (≈ 40.3 to 80.6 µM); in the experiment on A. baumannii ATCC 17978, 2 to 4 µg/mL (≈ 2.52 to 5.04 µM); with A. baumannii CDC-0036, over 128 µg/mL; with P. aeruginosa CDC-0090, 32 to 64 µg/mL (≈ 40.3 to 80.6 µM); in experiment [3], over 128 µg/mL. Moreover, the MIC was 32 to 64 µg/mL (≈ 40.3 to 80.6 µM) with P. aeruginosa CDC-0054 and over 128 µg/mL in the experiment with A. baumannii CDC-0045. In addition, the IC50 in experiment [1] and in experiment [2] was 50 to 250 µM each time.
For `O=C(NCCCN1CCN(C(=O)N[C@@H](C(=O)N[C@H]2Cc3ccc(F)c(C(=O)O)c3OB2O)c2cc(F)c(O)c(O)c2Cl)C(=O)C1=O)c1cccc(O)c1Cl` [Example 303, (R)-3-((R)-2-(4-(3-(2-chloro-3-hydroxybenzamido)propyl)-2,3-dioxopiperazine-1-carboxamido)-2-(2-chloro-5-fluoro-3,4-dihydroxyphenyl)acetamido)-7-fluoro-2-hydroxy-3,4-dihydro-2H-benzo[e][1,2]oxaborinine-8-carboxylic acid], the MIC (with A. baumannii 1258916; with P. aeruginosa ATCC 27853; in the experiment with A. baumannii ATCC 17978; in the experiment with A. baumannii CDC-0036; with P. aeruginosa CDC-0090; in [3]) was under 1 µg/mL in each case. Also, the MIC with P. aeruginosa CDC-0054 and in the experiment on A. baumannii CDC-0045 was under 1 µg/mL each time. For the same compound, the IC50 in experiment [1] and in experiment [2] was under 10 µM throughout.
For the compound `O=C(NCCCN1CCN(C(=O)NC(C(=O)N[C@H]2Cc3ccc(F)c(C(=O)O)c3OB2O)c2cc(F)c(O)c(O)c2Cl)C(=O)C1=O)c1ccc(O)c(F)c1` (stereo partly drawn) [Example 304, (3R)-3-(2-(2-chloro-5-fluoro-3,4-dihydroxyphenyl)-2-(4-(3-(3-fluoro-4-hydroxybenzamido)propyl)-2,3-dioxopiperazine-1-carboxamido)acetamido)-7-fluoro-2-hydroxy-3,4-dihydro-2H-benzo[e][1,2]oxaborinine-8-carboxylic acid], the MIC in the experiment on A. baumannii 1258916 is under 1 µg/mL; in the experiment on P. aeruginosa ATCC 27853, 2 to 4 µg/mL (≈ 2.57 to 5.14 µM); with A. baumannii ATCC 17978, under 1 µg/mL; in the experiment with A. baumannii CDC-0036, 2 to 4 µg/mL (≈ 2.57 to 5.14 µM); in the experiment with P. aeruginosa CDC-0090, under 1 µg/mL; in experiment [3], 2 to 4 µg/mL (≈ 2.57 to 5.14 µM). The MIC was 2 to 4 µg/mL (≈ 2.57 to 5.14 µM) in the experiment with P. aeruginosa CDC-0054 and under 1 µg/mL in the experiment on A. baumannii CDC-0045. For the same compound, the IC50 in experiment [1] and in [2] was under 10 µM throughout.
For `O=C(NCCCN1CCN(C(=O)NC(C(=O)N[C@H]2Cc3ccc(F)c(C(=O)O)c3OB2O)c2cc(F)c(O)c(O)c2Cl)C(=O)C1=O)c1ccc(O)c(Cl)c1` (stereo partly drawn) [Example 305, (3R)-3-(2-(4-(3-(3-chloro-4-hydroxybenzamido)propyl)-2,3-dioxopiperazine-1-carboxamido)-2-(2-chloro-5-fluoro-3,4-dihydroxyphenyl)acetamido)-7-fluoro-2-hydroxy-3,4-dihydro-2H-benzo[e][1,2]oxaborinine-8-carboxylic acid], the MIC with A. baumannii 1258916 was under 1 µg/mL; with P. aeruginosa ATCC 27853 it was 2 to 4 µg/mL (≈ 2.52 to 5.04 µM); in the experiment with A. baumannii ATCC 17978, under 1 µg/mL; in the experiment on A. baumannii CDC-0036, 2 to 4 µg/mL (≈ 2.52 to 5.04 µM); in the experiment on P. aeruginosa CDC-0090, under 1 µg/mL; in [3], 2 to 4 µg/mL (≈ 2.52 to 5.04 µM). In addition, the MIC in the experiment on P. aeruginosa CDC-0054 and in the experiment on A. baumannii CDC-0045 was 2 to 4 µg/mL (≈ 2.52 to 5.04 µM) in each case. In addition, the IC50 in experiment [1] and in experiment [2] was under 10 µM throughout.
As to `O=C(NCCCN1CCN(C(=O)NC(C(=O)N[C@H]2Cc3ccc(F)c(C(=O)O)c3OB2O)c2cc(F)c(O)c(O)c2Cl)C(=O)C1=O)c1ccc(O)c(F)c1F` (stereo partly drawn) [Example 306, (3R)-3-(2-(2-chloro-5-fluoro-3,4-dihydroxyphenyl)-2-(4-(3-(2,3-difluoro-4-hydroxybenzamido)propyl)-2,3-dioxopiperazine-1-carboxamido)acetamido)-7-fluoro-2-hydroxy-3,4-dihydro-2H-benzo[e][1,2]oxaborinine-8-carboxylic acid], the MIC in the experiment with A. baumannii 1258916 is under 1 µg/mL; in the experiment on P. aeruginosa ATCC 27853 it was 2 to 4 µg/mL (≈ 2.51 to 5.03 µM); with A. baumannii ATCC 17978, under 1 µg/mL; in the experiment with A. baumannii CDC-0036, 2 to 4 µg/mL (≈ 2.51 to 5.03 µM); in the experiment with P. aeruginosa CDC-0090, under 1 µg/mL; in experiment [3] it was 2 to 4 µg/mL (≈ 2.51 to 5.03 µM). The MIC with P. aeruginosa CDC-0054 was 2 to 4 µg/mL (≈ 2.51 to 5.03 µM); in the experiment with A. baumannii CDC-0045, under 1 µg/mL. The IC50 in [1] and in [2] was under 10 µM each time.

(Values after patent publication US20240270762A1, “PENICILLIN-BINDING PROTEIN INHIBITORS” (priority 2021, published 2024).)
